Legend:
[1] = Inhibition of PKA
[2] = Biodistribution in tail vein injected Sprague-Dawley rat brain after 5 to 60 mins; format: ADME, organism-based; conditions: iv, read-out: Drug uptake
[3] = Partition coefficient, log P in phosphate buffer at pH 7.4; format: physicochemical

IC50 [1] [nM]	tissue uptake [2] [%ID/g]	logD [3]	SMILES
1280	< 0.2	2.93	CN(CCNC/C=C/c1ccc(Br)cc1)S(=O)(=O)c1cccc2cnccc12
940			O=S(=O)(NCCNC/C=C/c1ccc(Br)cc1)c1cccc2cnccc12
